According to patent US8148097B2, “Screening method for identification of compounds with calcium-independent phospholipase A2β (iPLA2β) modulating activity” (Washington University, priority 2005, dated 2012):

Molecular target: T1, iPLA2β (Cricetulus griseus, UniProt A0A3L7I2I8)
T1 construct: (His)6; made in house; host or cells: Sf9 insect cells (baculovirus)
T1 sequence (A0A3L7I2I8 1-752 isoform A0A3L7I2I8-2): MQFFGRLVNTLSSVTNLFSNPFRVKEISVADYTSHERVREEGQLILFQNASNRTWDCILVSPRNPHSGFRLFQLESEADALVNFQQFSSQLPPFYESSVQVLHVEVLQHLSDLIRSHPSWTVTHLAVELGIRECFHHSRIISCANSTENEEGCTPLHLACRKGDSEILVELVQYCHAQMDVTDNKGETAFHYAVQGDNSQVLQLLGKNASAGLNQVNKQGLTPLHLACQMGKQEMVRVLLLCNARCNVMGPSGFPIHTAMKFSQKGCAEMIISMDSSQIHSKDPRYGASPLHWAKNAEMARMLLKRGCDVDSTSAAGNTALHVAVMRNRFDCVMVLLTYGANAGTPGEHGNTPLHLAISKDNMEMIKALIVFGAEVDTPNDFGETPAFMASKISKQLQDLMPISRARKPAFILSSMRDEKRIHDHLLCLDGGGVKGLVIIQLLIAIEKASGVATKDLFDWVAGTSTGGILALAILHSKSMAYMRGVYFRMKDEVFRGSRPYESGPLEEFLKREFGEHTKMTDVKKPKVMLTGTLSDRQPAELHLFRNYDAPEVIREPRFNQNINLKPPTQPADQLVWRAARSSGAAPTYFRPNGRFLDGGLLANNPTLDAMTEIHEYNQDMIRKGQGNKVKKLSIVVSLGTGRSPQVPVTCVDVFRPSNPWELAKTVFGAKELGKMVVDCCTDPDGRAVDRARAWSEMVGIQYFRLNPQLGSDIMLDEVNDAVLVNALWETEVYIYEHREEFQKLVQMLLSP
Experiment: Covalent acylation (autoacylation) of iPLA2β with [14C]-long chain acyl-CoAs
Type: biochemical
Protocol: FIG. 5—Equivalent amounts of the indicated [1-^14C]-acyl-CoA guests (5 mol %) were incorporated into host POPC (100 μM) vesicles and incubated for 1 hr at 37° C. with equal amounts of either wild-type (WT) iPLA2β(His)6 (peptide disclosed as SEQ ID NO: 4), S465A iPLA2β(His)6 (peptide disclosed as SEQ ID NO: 4), or BEL-pretreated WT iPLA2β(His)6 (peptide disclosed as SEQ ID NO: 4) enzyme as described in Experimental Procedures. Samples were resolved by SDS-PAGE (10% gel), fixed, and dried before visualization by autoradiography.
FIG. 6—Purified iPLA2β(His)6 (peptide disclosed as SEQ ID NO: 4) (2 μM) was incubated with the indicated concentrations of [1-^14C]-oleoyl-CoA present as guest in host POPC (100 μM) vesicles for 1 hr at 37° C. Samples were electrophoresed in parallel with standard amounts (0.5-10 nCi) of [^14C]-BSA of known activity (not shown). The fixed and dried gel was exposed to film and the resultant signals from the [^14C]-BSA were utilized to generate a standard curve utilizing ID software from a Kodak Imagestation to determine the incorporation of [1-^14C]-oleate into iPLA2β.
FIG. 7—Purified iPLA2β(His)6 (peptide disclosed as SEQ ID NO: 4) was incubated with [1-^14C]-oleoyl CoA (10 mol %) incorporated as guest in host POPC vesicles. N-ethylmaleimide and iodoacetamide samples were pretreated with 5 mM of either reagent for 5 min at 30° C. before addition of [1-^14C]-oleoyl-CoA. Samples were incubated with 1 N HCl, 1 N NaOH, or 2 N neutral hydroxylamine for 1 hr at 30° C. as indicated. All samples, except lane 1, were precipitated with CHCl3/MeOH and washed with 70% acetone before SDS-PAGE and autoradiography as described in Experimental Procedures.
FIG. 10—Purified iPLA2β(His)6 (peptide disclosed as SEQ ID NO: 4) was incubated with [1-^14C]-oleoyl CoA (10 mol %) incorporated as guest in host POPC vesicles in the presence of EGTA (5 mM), Ca^2+ (1 mM), CaM (3 μg), or Ca^2+-CaM for 1 h at 37° C. Samples were resolved by SDS-PAGE and the gel was soaked in Amplify fluorographic reagent, dried, and exposed to film as described in Experimental Procedures.
Covalent Modification of […] with [^14C]-long chain Acyl CoAs—Purified recombinant iPLA2β(His)6 (peptide disclosed as SEQ ID NO: 4) was incubated with POPC vesicles containing 10 mol % [1-^14C]-acyl-CoA for 1 h at 37° C. […] Chloroform/methanol precipitation of some samples was performed as described (66) utilizing 15 μg of bovine serum albumin as carrier. In tests to examine the nature of the covalent linkage between oleic acid and iPLA2β, acid (HCl), base (NaOH), and hydroxylamine were added to the indicated concentrations and the samples were incubated at 30° C. for 1 h. Bovine serum albumin (15 μg) and SDS-PAGE loading buffer were then added to each sample prior to dialysis against 50 mM Tris-HCl, pH 6.8 containing 10% glycerol and 1% SDS for 4 h. Samples were electrophoresed by SDS-PAGE, fixed (40% methanol containing 10% acetic acid), stained with Coomassie Blue R-250, incubated in Amplify fluorographic reagent, dried, and exposed to Kodak Biomax MR film for 2-5 days at −80° C.

Q: Which results are given for `CCCCCCCC/C=C\CCCCCCCC(=O)SCCNC(=O)CCNC(=O)[C@H](O)C(C)(C)COP(=O)(O)OP(=O)(O)OC[C@H]1O[C@@H](n2cnc3c(N)ncnc32)[C@H](O)[C@@H]1OP(=O)(O)O` [oleoyl-CoA]?
A: [1-14C]-oleic acid incorporated per mole of iPLA2β (POPC vesicles, up to 5-fold molar excess of oleoyl-CoA, FIG. 6): approximately 1 mole; radiolabeling of iPLA2β, fold greater than saturated counterparts (wild-type iPLA2β, FIG. 5): 10-100 fold
